We go through 15 molecules from ChEMBL document CHEMBL5291721, “A preclinical secondary pharmacology resource illuminates target-adverse drug reaction associations of marketed drugs” (Nat Commun, 2023).

The target in test [1] is T1, Adenosine receptor A3 (Homo sapiens, UniProt P0DMS8).
T1 sequence (P0DMS8 whole entry): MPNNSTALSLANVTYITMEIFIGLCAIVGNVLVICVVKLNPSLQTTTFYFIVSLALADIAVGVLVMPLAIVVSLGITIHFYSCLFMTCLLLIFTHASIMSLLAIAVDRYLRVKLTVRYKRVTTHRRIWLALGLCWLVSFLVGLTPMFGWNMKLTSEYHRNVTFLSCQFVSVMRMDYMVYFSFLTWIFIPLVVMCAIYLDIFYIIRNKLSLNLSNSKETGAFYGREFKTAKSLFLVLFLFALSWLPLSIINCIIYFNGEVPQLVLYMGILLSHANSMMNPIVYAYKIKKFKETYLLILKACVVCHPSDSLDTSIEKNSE

In test [2] the target is T2, Alpha-1A adrenergic receptor (Homo sapiens, UniProt P35348).
T2 sequence (P35348 whole entry): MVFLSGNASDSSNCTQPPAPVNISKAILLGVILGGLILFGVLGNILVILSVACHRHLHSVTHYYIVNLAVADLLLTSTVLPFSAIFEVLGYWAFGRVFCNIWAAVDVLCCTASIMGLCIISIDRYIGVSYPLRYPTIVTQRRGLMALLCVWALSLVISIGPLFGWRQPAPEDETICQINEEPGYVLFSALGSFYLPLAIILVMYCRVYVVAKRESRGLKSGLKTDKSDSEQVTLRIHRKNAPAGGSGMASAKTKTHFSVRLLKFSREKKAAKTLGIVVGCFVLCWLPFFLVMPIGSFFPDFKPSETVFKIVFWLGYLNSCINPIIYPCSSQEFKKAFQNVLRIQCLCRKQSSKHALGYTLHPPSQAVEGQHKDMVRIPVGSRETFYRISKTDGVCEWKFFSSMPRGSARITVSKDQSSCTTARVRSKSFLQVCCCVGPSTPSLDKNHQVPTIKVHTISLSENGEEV
It counts as functional, cell-based.

Test [3] has as its target T3, Alpha-2A adrenergic receptor (Homo sapiens, UniProt P08913).
T3 sequence (P08913 whole entry): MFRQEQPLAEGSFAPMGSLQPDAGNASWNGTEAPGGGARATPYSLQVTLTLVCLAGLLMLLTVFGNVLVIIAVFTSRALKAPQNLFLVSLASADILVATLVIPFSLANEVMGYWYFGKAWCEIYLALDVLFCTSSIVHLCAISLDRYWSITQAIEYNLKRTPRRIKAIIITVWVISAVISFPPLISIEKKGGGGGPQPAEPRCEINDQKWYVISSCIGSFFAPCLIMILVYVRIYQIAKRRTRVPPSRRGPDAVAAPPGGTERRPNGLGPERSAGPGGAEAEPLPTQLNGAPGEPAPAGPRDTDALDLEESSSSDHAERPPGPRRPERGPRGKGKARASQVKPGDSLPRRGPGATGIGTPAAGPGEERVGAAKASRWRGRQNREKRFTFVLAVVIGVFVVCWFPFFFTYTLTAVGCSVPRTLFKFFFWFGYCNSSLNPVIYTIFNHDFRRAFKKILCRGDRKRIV
It counts as functional, cell-based.

The target in test [4] is Gamma-aminobutyric acid receptor subunit alpha-1 (Rattus norvegicus, UniProt P62813). The class given is functional.
Test [5] has as its target T4, 5-hydroxytryptamine receptor 1A (Homo sapiens, UniProt P08908).
T4 sequence (P08908 whole entry): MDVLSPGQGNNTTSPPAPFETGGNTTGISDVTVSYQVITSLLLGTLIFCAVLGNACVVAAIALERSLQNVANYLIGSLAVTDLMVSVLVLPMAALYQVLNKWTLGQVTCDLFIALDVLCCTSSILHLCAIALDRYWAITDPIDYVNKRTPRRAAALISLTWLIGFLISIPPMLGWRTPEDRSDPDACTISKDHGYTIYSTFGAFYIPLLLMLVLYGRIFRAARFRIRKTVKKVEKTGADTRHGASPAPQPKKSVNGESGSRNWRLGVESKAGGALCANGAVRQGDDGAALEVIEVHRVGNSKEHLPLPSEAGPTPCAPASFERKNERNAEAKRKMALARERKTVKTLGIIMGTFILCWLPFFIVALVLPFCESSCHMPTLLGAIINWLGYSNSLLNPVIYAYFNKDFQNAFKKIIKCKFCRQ
The class given is functional, cell-based.

The target of test [6] is T5, 5-hydroxytryptamine receptor 3A (Homo sapiens, UniProt P46098).
T5 sequence (P46098 whole entry): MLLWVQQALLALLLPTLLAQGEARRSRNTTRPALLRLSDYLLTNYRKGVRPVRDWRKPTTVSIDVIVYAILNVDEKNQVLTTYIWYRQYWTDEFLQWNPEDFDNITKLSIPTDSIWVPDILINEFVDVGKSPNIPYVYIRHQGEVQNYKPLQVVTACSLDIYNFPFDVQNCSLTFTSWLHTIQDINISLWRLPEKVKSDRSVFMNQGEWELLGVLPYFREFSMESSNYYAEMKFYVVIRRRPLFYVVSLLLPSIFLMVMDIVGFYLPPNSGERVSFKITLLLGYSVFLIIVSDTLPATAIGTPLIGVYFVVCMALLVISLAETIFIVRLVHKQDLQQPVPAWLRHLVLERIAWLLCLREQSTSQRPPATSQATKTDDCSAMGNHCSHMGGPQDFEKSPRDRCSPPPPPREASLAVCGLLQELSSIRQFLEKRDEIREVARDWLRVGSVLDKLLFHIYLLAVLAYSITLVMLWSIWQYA
It counts as functional.

The target in test [7] is Voltage-gated inwardly rectifying potassium channel KCNH2 (Homo sapiens, UniProt Q12809). It counts as functional. Particulars: read-out: AC50.
In test [8] the target is Motilin receptor (Homo sapiens, UniProt O43193).
Test [9] has as its target Kappa-type opioid receptor (Homo sapiens, UniProt P41145).
Test [10] concerns the target T2, Alpha-1A adrenergic receptor. The class given is functional, cell-based. This is another data set of the same source.

Each structure is given as a SMILES string. A value given as a limit tells only on which side of the number the result lay.
Note: assay procedure not described here.

Chain of Motilin receptor (O43193 whole entry): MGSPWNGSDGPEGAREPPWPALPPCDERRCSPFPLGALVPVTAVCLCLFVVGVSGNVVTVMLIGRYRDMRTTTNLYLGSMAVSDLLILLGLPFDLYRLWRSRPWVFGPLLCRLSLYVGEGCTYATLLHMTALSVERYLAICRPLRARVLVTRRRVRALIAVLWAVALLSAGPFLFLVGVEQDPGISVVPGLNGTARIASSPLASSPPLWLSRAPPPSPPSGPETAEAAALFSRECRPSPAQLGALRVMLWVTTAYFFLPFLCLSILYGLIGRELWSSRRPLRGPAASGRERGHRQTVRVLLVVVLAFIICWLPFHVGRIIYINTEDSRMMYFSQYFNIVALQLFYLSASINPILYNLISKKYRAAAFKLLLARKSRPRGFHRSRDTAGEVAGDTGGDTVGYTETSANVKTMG
Chain of Voltage-gated inwardly rectifying potassium channel KCNH2 (Q12809 whole entry): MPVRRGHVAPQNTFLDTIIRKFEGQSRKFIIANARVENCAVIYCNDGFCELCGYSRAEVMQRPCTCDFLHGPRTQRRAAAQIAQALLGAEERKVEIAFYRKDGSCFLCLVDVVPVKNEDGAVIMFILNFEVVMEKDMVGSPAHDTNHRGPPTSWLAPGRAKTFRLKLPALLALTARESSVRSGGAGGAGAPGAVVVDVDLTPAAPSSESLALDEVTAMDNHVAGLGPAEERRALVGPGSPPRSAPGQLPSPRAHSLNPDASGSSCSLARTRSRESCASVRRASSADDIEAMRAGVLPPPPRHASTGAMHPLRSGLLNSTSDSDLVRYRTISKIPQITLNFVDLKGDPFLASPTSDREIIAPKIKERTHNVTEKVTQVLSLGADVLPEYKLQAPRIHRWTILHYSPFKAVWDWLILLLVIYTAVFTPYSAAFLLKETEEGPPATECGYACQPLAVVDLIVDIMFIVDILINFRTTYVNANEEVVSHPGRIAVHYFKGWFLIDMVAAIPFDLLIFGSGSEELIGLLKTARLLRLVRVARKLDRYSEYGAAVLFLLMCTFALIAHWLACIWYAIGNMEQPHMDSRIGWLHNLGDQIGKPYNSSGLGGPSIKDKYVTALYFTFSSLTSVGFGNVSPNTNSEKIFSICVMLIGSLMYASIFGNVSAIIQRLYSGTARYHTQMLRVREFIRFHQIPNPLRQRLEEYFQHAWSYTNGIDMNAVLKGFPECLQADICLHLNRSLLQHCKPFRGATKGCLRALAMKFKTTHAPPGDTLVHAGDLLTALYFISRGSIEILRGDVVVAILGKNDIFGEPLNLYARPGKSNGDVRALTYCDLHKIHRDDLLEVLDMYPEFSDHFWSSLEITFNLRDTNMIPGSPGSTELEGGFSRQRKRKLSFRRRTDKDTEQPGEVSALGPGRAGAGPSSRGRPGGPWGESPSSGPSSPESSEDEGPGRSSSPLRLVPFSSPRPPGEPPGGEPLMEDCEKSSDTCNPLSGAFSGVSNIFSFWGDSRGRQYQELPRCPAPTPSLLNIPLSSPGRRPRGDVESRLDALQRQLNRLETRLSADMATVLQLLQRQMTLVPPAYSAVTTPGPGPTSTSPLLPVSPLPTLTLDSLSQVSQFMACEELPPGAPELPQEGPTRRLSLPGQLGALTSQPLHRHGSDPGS
Chain of Kappa-type opioid receptor (P41145 whole entry): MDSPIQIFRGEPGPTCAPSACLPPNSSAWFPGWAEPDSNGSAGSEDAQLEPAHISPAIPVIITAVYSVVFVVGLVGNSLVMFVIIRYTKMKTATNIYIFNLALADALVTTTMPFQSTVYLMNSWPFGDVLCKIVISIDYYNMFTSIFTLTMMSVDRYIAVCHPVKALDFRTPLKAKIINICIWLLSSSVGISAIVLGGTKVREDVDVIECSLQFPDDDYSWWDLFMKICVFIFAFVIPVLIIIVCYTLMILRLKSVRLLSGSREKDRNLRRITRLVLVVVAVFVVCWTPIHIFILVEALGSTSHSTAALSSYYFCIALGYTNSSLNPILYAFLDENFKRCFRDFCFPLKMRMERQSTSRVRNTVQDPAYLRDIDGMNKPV
Chain of Gamma-aminobutyric acid receptor subunit alpha-1 (P62813 whole entry): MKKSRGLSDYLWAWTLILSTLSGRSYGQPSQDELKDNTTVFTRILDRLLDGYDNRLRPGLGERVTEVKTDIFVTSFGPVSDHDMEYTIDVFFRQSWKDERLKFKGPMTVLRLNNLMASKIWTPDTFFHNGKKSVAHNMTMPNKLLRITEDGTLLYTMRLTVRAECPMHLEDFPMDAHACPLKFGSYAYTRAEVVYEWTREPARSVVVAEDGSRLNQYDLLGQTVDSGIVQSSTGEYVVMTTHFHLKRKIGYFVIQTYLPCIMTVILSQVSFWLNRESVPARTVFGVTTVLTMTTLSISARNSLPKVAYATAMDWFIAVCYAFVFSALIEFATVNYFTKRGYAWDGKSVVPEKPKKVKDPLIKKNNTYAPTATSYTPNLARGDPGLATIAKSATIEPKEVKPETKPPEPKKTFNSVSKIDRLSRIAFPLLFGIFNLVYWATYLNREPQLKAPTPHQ

With `CN1CC(=O)N2[C@H](c3ccc4c(c3)OCO4)c3[nH]c4ccccc4c3C[C@@H]2C1=O`, the AC50 in test [1] was over 30 µM; in [2] it was over 30 µM; in test [3], over 10 µM; in test [4], over 10 µM; in [5] it was over 10 µM; in test [6], over 30 µM. The AC50 was over 30 µM in [7], over 10 µM in test [8] and over 10 µM in test [9].
Take `C=C1CC[C@@]2(O)[C@H]3Cc4ccc(O)c5c4[C@@]2(CCN3CC2CC2)[C@H]1O5`: the AC50 in test [1], in [2], in test [3], in [4], in [5] and in test [6] was over 30 µM each time. Besides, the AC50 is 28 µM in [7] and over 30 µM in test [8].
For `Nc1ncnc2c1ncn2[C@@H]1O[C@H](COP(=O)(O)O)[C@@H](O)[C@H]1O` [ADENOSINE PHOSPHATE], the concentration at half-maximal activity (AC50) in test [1] was over 30 µM; in [2], over 30 µM; in test [3], over 30 µM; in test [4] it was over 30 µM; in [6], over 30 µM; in test [7] it was 15 µM. For the same molecule, the concentration at half-maximal activity (AC50) in [8], in test [9] and in [10] was over 30 µM throughout.
Turning to `CCCC(CCC)C(=O)O[C@H]1C[C@H]2CC[C@@H](C1)[N+]2(C)C` [ANISOTROPINE], the AC50 is over 30 µM in [1]; over 30 µM in test [2]; over 30 µM in test [3]; over 30 µM in test [4]; 28 µM in [6]; 2.1 µM in [7]. Besides, the concentration at half-maximal activity (AC50) in test [8] was over 30 µM; in [9], over 30 µM; in [10], 19 µM.
Turning to `COC(=O)[C@H]1[C@@H](OC(=O)c2ccccc2)C[C@@H]2CC[C@H]1N2C` [COCAINE], the half-maximal activity concentration (AC50) in test [1], in test [2], in test [3], in test [4], in [6] and in test [8] was over 30 µM each time. Also, the AC50 in test [9] and in test [10] was over 30 µM throughout.
For the molecule `CN[C@@H](C)[C@H](O)c1ccccc1` [EPHEDRINE], the concentration at half-maximal activity (AC50) in [1] is over 30 µM; in [2] it was 13 µM; in test [3], over 10 µM; in [4], over 10 µM; in [5], over 10 µM; in test [6] it was over 30 µM. The AC50 in test [7] was over 30 µM; in test [8] it was over 10 µM; in test [9], over 10 µM.
For the molecule `C[C@H]1C[C@@H]2[C@H]([C@@H](O)C[C@@]3(C)[C@H]2CC[C@]3(O)C(=O)COC(=O)CCC(=O)O)[C@@]2(C)C=CC(=O)C=C12` [METHYLPREDNISOLONE HEMISUCCINATE], the AC50 in test [1], in [2], in [3], in [4], in test [5] and in test [6] was over 30 µM in each case. Also, the half-maximal activity concentration (AC50) in test [7], in [8] and in [9] was over 30 µM throughout.
`CCCCC(C)(O)C/C=C/[C@H]1[C@H](O)CC(=O)[C@@H]1CCCCCCC(=O)OC` (stereo partly specified) [MISOPROSTOL]: the AC50 in [1], in test [2], in test [3], in test [4], in test [5] and in [6] was over 30 µM throughout. In addition, the AC50 in test [7], in [8] and in test [9] was over 30 µM each time.
With `CN1CCCN=C1COC(=O)C(O)(c1ccccc1)C1CCCCC1` (stereo unspecified) [OXYPHENCYCLIMINE], the AC50 in test [1] is over 10 µM; in test [3], over 10 µM; in test [4] it was over 10 µM; in [5], over 10 µM; in test [6], over 30 µM; in test [7], 3.77 µM. Besides, the AC50 in test [8] and in [9] was over 10 µM throughout.
On to `CN1CCC2=C(C1)C(c1ccccc1)c1ccccc12` (stereo unspecified) [PHENINDAMINE], for which the AC50 in [1] was over 10 µM; in test [3] it was over 10 µM; in test [4], over 10 µM; in [5], over 10 µM; in [6], 12 µM; in [7] it was over 30 µM. The concentration at half-maximal activity (AC50) in test [8] and in test [9] was over 10 µM in each case.
As to `C#CCN[C@@H]1CCc2ccccc21` [RASAGILINE], the concentration at half-maximal activity (AC50) in test [1], in test [3], in test [4], in test [5], in [6] and in test [7] was over 30 µM throughout. Also, the AC50 in test [8] and in test [9] was over 30 µM in each case.
With `C1COC(NC(C2CC2)C2CC2)=N1` [RILMENIDINE], the half-maximal activity concentration (AC50) is over 30 µM in [1]; 3.4 µM in test [2]; 2.6 µM in [3]; over 10 µM in [4]; over 30 µM in test [5]; over 30 µM in test [6]. Also, the figures for the AC50 in test [7], in [8] and in [9] were over 30 µM, over 10 µM and 1.72 µM, respectively.
Regarding `O=C1NCCN1CCN1CCC(c2cn(-c3ccc(F)cc3)c3ccc(Cl)cc23)CC1` [SERTINDOLE], the half-maximal activity concentration (AC50) in test [1] is 16 µM; in [2], over 30 µM; in test [4] it was over 30 µM; in test [6], over 30 µM; in [8], 4.3 µM; in test [9], 3.7 µM. In addition, in [10], half-maximal activity (AC50) was put at 0.64 µM.
In the case of `CN[C@@H]1[C@H](O)[C@H](NC)[C@H]2O[C@@]3(O)C(=O)C[C@@H](C)O[C@H]3O[C@@H]2[C@H]1O` [SPECTINOMYCIN], the AC50 in [1] is over 10 µM; in test [3], over 10 µM; in test [4], over 10 µM; in test [5], over 30 µM; in test [6], over 30 µM; in [7] it was over 30 µM. For the same molecule, the concentration at half-maximal activity (AC50) in [8] and in [9] was over 10 µM each time.
Take `CC(=O)NS(=O)(=O)c1ccc(N)cc1` [SULFACETAMIDE]: the AC50 in test [1] is over 10 µM; in [3], over 10 µM; in [4] it was over 10 µM; in test [5], over 10 µM; in test [6] it was over 30 µM; in [7], over 30 µM. Further, the AC50 in test [8] and in [9] was over 10 µM each time.
